Measured values published in patent US20260000781A1, “FC CONJUGATES INCLUDING AN INHIBITOR OF CD73 AND USES THEREOF” (Cidara Therapeutics, Inc., priority 2022, published 2026).
Like-named read-outs stand apart in the source and are kept apart here.

System: human PBMCs inhibited by AMP
Experiment: PBMC activation assay by flow cytometry (rescue of AMP suppressed cells)
Format: cell-based
Method: (§1) Human PBMCs (StemCell Technologies cat no. 70025) prepared in ImmunoCult™—XF T cell Expansion medium (StemCell Technologies cat no. 10981) were seeded at 1×10^5 cells per well (100 μL of 1×10^6 cells/mL) in the presence or absence of T cell activator anti-CD3/CD28/CD2 (StemCell Technologies cat no. 10970) in 96 well round bottom plates (Corning cat no. 3788). Ten-fold serial dilutions of each test article was prepared, resulting in final concentrations ranging from 0.1 nM-10,000 nM. 50 μL of test article was added to the cells, followed by 50 μL of adenosine 5′ monophosphate (AMP; MilliporeSigma cat no. A1752) for a final concentration of 30 μM. Plates were incubated at 37° C. with 5% CO2 for 72 h. After 72 h the cells were centrifuged for 5 min at 300×g at 4° C. then washed twice with cell staining buffer (BioLegend cat no. 420201). Cells were incubated with Fc block (Unlabeled, Clone: 3070; BD Biosciences cat no. 5642220) for 10 min at 4° C. Cells were stained with anti-human CD25 antibody, clone 2A3, PE (StemCell Technologies cat no. 60153PE) for 20 min at 4° C. protected from light. Cells were washed twice with cell staining buffer and resuspended in 200 μL of cell staining buffer. Samples were acquired using a Cytek Northern Lights flow cytometry system. CD25^+ by flow cytometry was used as the readout to measure PBMC activation after AMP inhibition. Samples were analyzed using FlowJo version 10. Percent rescue […] was plotted using GraphPad Prism Version 6 and EC50 values were generated using nonlinear regression analysis for total PBMCs or CD8^+ T cells using CD25^+ as read-out or granzyme B^+.
as §1, with “test article were prepared, resulting” for “test article was prepared, resulting”, “nonlinear regression analysis.” for “nonlinear regression analysis for total PBMCs or CD8^+ T cells using CD25^+ as read-out or granzyme B^+.”
Human PBMCs (StemCell Technologies cat no. 70025) prepared in ImmunoCult™—XF T cell Expansion medium (StemCell Technologies cat no. 10981) were seeded at 1×10^5 cells per well (100 μL of 1×10^6 cells/mL) in the presence or absence of T cell activator anti-CD3/CD28/CD2 (StemCell Technologies cat no. 10970) in 96 well round bottom plates (Corning cat no. 3788). Ten-fold serial dilutions of each test article was prepared in medium (ranging from 4,000 nM-0.4 nM), resulting in final concentrations ranging from 1,000 nM-0.1 nM. 50 μL of test article was added to the cells, followed by 50 μL of adenosine 5′ monophosphate (AMP; MilliporeSigma cat no. A1752) for a final concentration of 30 μM. […]

[1] = read-out: 30 μM AMP EC50, CD25+ as a read-out, total PBMCs, 72 h
[2] = 30 μM AMP, 72 h, read-out: CD8+CD25+ EC50
[3] = 30 μM AMP, 72 h, read-out: CD8+granzyme B+ EC50

`COC[C@](CO)(OC[C@H]1O[C@@H](n2ncc3c(NC4CCCC4)nc(Cl)nc32)[C@H](O)[C@@H]1O)P(=O)(O)O` [OP5244] was tested, and the EC50 [1] was 8 nM and the EC50 (read-out: 30 μM AMP EC50, batches of Conjugate 172c, CD25+ as a read-out, 72 h (Table 13)) was 17 nM.
Work on `C[C@H](Nc1cc(Cl)nc2c1cnn2[C@@H]1O[C@H](COP(=O)(O)CP(=O)(O)O)[C@@H](O)[C@H]1O)c1ccccc1F` [AB680] yielded an EC50 (Homo sapiens, PBMC, read-out: 30 μM AMP EC50 [nM], CD25+ as a read-out, total PBMCs, 72 h) of 9 nM, an EC50 (Homo sapiens, PBMC, read-out: EC50 [nM] (median, n = 3) CD4+CD25+, 30 μM AMP, 72 h) of 10 nM and an EC50 (Homo sapiens, PBMC, read-out: EC50 [nM] (median, n = 3) CD8+CD25+, 30 μM AMP, 72 h) of 10 nM. For the same compound, the EC50 (Homo sapiens, PBMC, read-out: EC50 [nM] (median, n = 3) CD8+Granzyme B+, 30 μM AMP, 72 h) was 47 nM, the EC50 (Homo sapiens, PBMC, 30 μM AMP, 72 h, CD4+CD25+, CD8+CD25+, CD8+Granzyme B+, read-out: EC50 values (range over the read-outs)) was 10 to 54 nM and the EC50 (Homo sapiens, PBMC, 30 μM AMP, 72 h, read-out: CD8+CD25+ EC50) was 8.1 nM. The EC50 (Homo sapiens, PBMC, 30 μM AMP, 72 h, read-out: CD8+granzyme B+ EC50) was 1.4 nM.
Work on `O=P(O)(O)COC[C@H]1O[C@@H](n2ncc3c(N4CC5(CCc6ccccc65)C4)nc(Cl)nc32)[C@H](O)[C@@H]1O` [SHR170008] yielded an EC50 [2] of 598 nM, an EC50 [3] of 212 nM and an EC50 [1] of 374 nM.
With `COC[C@](CO)(OC[C@H]1O[C@@H](n2ncc3c(NC4CCCC4)nc(Cl)nc32)[C@H](O)[C@@H]1O)P(=O)(O)O` [OP-5244] the EC50 [2] was 5.9 nM, the EC50 [3] was 1.4 nM and the EC50 (read-out: EC50 [nM] (median, n = 3) CD4+CD25+, 30 μM AMP, 72 h) was 7 nM. For the same compound, the EC50 (read-out: EC50 [nM] (median, n = 3) CD8+CD25+, 30 μM AMP, 72 h) was 7 nM and the EC50 (read-out: EC50 [nM] (median, n = 3) CD8+Granzyme B+, 30 μM AMP, 72 h) was 8 nM.
